Usually Ki stands for a measure of affinity in units of concentration, obtained from inhibition or displacement.

Molecules are shown by their SMILES.

The values that follow come from paper PMC9822155, “Synthesis and Antiproliferative Activity against Cancer Cells of Indole-Aryl-Amide Derivatives” (Molecules, 2022).

In one test the target is T1, δ-OR (Homo sapiens, UniProt P41143).
T1 construct: purchased PerkinElmer (Krakow, Poland); host or cells: CHO cells (membranes)
Description: Radioligand binding assay, δ-OR ([3H]deltorphin-2 displacement). Particulars: [3H]deltorphin-2, membranes of CHO cells with human recombinant OR; ± SEM (n ≥ 3). On the procedure:
In order to evaluate the affinity of the compounds for μ-, δ-, κ-ORs, radioligand binding assays were performed. Displacement of radioligands, [^3H]DAMGO (μ-OR selective), [^3H]deltorphin-2 (δ-OR selective), and [^3H]U-69593 (κ-OR selective) by the synthetic analogs was investigated in the commercial membranes of CHO cells transfected with human recombinant ORs. […] Due to the modest receptor affinities, the functional activity of the compounds was not investigated.
Opioid radioligands, [^3H]DAMGO, [^3H]deltorphin-2 and [^3H]U-69593, and human recombinant opioid receptors came from PerkinElmer (Krakow, Poland). GF/B glass fiber strips were purchased from Whatman (Brentford, UK).
To determine the affinity of peptide analogs at the respective receptors, competition binding experiments were performed. Commercial membranes of CHO cells stably expressing human opioid receptors and the competing radioligands, [^3H]DAMGO, [^3H]deltorphin-2, and [^3H]U-69593 for μ-OR, δ-OR, and κ-OR, respectively, were used. Membranes were incubated in 0.5 mL volume of 50 mM Tris/HCl (pH = 7.4), 0.5% bovine serum albumin (BSA), with a number of peptidase inhibitors (bacitracin, bestatin, captopril) and various concentrations of radioligands for 2 h at 25 °C. Non-specific binding was assessed in the presence of […]. Three independent experiments for each assay were carried out in duplicate. The data were analyzed by a nonlinear least square regression analysis computer program Graph Pad PRISM 6.0 (Graph Pad Software Inc., San Diego, CA, USA). The IC50 values were determined from the logarithmic concentration-displacement curves, and the values of the inhibitory constants (Ki) were calculated according to the equation of Cheng and Prusoff.

The subject of another test is HT29 cells. Description: Cell cycle analysis by flow cytometry (PI staining). It counts as cell-based, human. Conditions: HT29, 5 μM, 24 h. On the procedure: HT29 cells were treated with 1 or 5 μM 5 for 24 h and analyzed by flow cytometry after DNA staining. […] In contrast, 5-treated HT29 cells accumulated in the G0/G1 phase in a dose-dependent manner, with a nearly complete synchronization (84% ± 0.9) after 5 μM treatment.
HT29 were plated at density of 20,000 cell/cm^2 in dish and after 24 h treated with 1 or 5 μM of 5 for 24 h. The samples were prepared in according to Calonghi. In brief, untreated and treated cells were detached, washed in PBS and the pellet was finally re-suspended in 0.01% Nonidet P-40 (Sigma-Aldrich, Milano, Italy), 10 μg/mL RNase (Sigma-Aldrich, Milano, Italy), 0.1% sodium citrate (Sigma-Aldrich, Milano, Italy), 50 μg/mL propidium iodide (PI) (Sigma-Aldrich, Milano, Italy), for 30 min at room temperature in the dark. Propidium iodide (PI) fluorescence was acquired on a linear scale and analysed by Modfit software version 5.2 (USA). Flow cytometric assays were performed on a Brite HS flow cytometer (Bio-Rad, Watford, UK) equipped with a Xe/Hg lamp.
(In general: A flow cytometer gives signals particle by particle.)

T1 sequence (P41143 whole entry): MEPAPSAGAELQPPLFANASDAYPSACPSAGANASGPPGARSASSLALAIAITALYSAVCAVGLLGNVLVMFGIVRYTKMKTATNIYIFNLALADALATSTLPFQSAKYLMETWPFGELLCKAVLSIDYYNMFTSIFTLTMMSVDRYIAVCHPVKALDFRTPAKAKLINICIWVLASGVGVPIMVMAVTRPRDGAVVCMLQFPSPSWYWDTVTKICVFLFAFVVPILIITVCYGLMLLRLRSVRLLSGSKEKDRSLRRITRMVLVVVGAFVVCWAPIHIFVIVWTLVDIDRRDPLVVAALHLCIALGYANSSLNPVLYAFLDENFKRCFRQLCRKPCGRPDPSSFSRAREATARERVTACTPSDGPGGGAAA

Consider `Nc1ccc(CN(Cc2ccc(O)cc2)C(=O)Cc2c[nH]c3ccccc23)cc1` [Compound 5], for which the Ki on δ-OR is 10.8 ± 1.3 µM. In addition, in the test on HT29 cells, the “Cells in G0/G1 phase” value is on record as 84% ± 0.9.
